Experimental data taken from patent US5300279A, “Organic amine phosphonic acid complexes for the treatment of calcific tumors” (The Dow Chemical Company, priority 1990, dated 1994).
Like-named read-outs stand apart in the source and are kept apart here.

What was measured:
[1] = Text: Quantitative biodistributions were obtained by injecting 50-100 microliters of the composition into the tail vein of unanesthetized male Sprague Dawley rats. The rats were then placed in cages lined with absorbent paper in order to collect all urine excreted prior to sacrifice. After a given period of time, the rats were sacrificed by cervical dislocation and the various tissues dissected. The samples were then rinsed with saline, blotted dry on absorbent paper and weighed. The radioactivity in the samples was measured with a NaI scintillation counter.
Whenever in the following examples and tables data is presented on the administered dose of radioactivity, the numbers given represent the percentage of the administered dose which localized in the indicated tissue. The ratios of radioactivity observed in bone relative to blood and muscle were calculated based on the percent dose per gram in the bone and in the blood and muscle. Whenever the ratios of radioactivity found in bone to that found in nonosseous tissue is given, the calculation was made as indicated above on a percent dose per gram basis.
A series of rats was injected with compositions containing Sm-153 EDTMP (compositions prepared as in Example 2) and sacrified in groups of five at various intervals.

[2] = system: white blood cells and platelets; settings: for platelet and white blood cell levels: 2-3 weeks after administration
Protocol: A series of normal beagles was treated with various dose levels of a composition containing Sm-153-EDTMP. White blood cell and platelet counts were measured weekly to check for signs of bone marrow supression.

[3] = humans

## O=P([O-])(O)CN(CCN(CP(=O)([O-])O)CP(=O)(O)O)CP(=O)([O-])O.[153Sm+3] [Example 2]
[1]; 1 Hour
  Average Percent of Injected Dose, Blood: .532% of Injected Dose
  Average Percent of Injected Dose, Kidneys: .466% of Injected Dose
  Average Percent of Injected Dose, Liver: .322% of Injected Dose
  Average Percent of Injected Dose, Skeleton: 58% of Injected Dose
  Average Percent of Injected Dose, Urine: 47% of Injected Dose
  Bone/Blood: 120
  Bone/Muscle: 300
[1]; 2 Hours
  Average Percent of Injected Dose, Blood: .032% of Injected Dose
  Average Percent of Injected Dose, Kidneys: .254% of Injected Dose
  Average Percent of Injected Dose, Liver: .252% of Injected Dose
  Average Percent of Injected Dose, Skeleton: 58% of Injected Dose
  Average Percent of Injected Dose, Urine: 49% of Injected Dose
  Bone/Blood: 1800
  Bone/Muscle: 1500
[1]; 5 Hours
  Average Percent of Injected Dose, Blood: .008% of Injected Dose
  Average Percent of Injected Dose, Kidneys: .364% of Injected Dose
  Average Percent of Injected Dose, Liver: .370% of Injected Dose
  Average Percent of Injected Dose, Skeleton: 59% of Injected Dose
  Average Percent of Injected Dose, Urine: 46% of Injected Dose
  Bone/Blood: 4200
  Bone/Muscle: 3600
[1]; 15 Min.
  Average Percent of Injected Dose, Blood: 5.852% of Injected Dose
  Average Percent of Injected Dose, Kidneys: 1.745% of Injected Dose
  Average Percent of Injected Dose, Liver: .959% of Injected Dose
  Average Percent of Injected Dose, Skeleton: 48% of Injected Dose
  Average Percent of Injected Dose, Urine: 28% of Injected Dose
  Bone/Blood: 7
  Bone/Muscle: 30
[1]; 24 Hours
  Average Percent of Injected Dose, Blood: .007% of Injected Dose
  Average Percent of Injected Dose, Kidneys: .250% of Injected Dose
  Average Percent of Injected Dose, Liver: .349% of Injected Dose
  Average Percent of Injected Dose, Skeleton: 52% of Injected Dose
  Average Percent of Injected Dose, Urine: 55% of Injected Dose
  Bone/Blood: 6700
  Bone/Muscle: 2400
[1]; 30 Min.
  Average Percent of Injected Dose, Blood: 2.304% of Injected Dose
  Average Percent of Injected Dose, Kidneys: .805% of Injected Dose
  Average Percent of Injected Dose, Liver: .526% of Injected Dose
  Average Percent of Injected Dose, Skeleton: 53% of Injected Dose
  Average Percent of Injected Dose, Urine: 42% of Injected Dose
  Bone/Blood: 20
  Bone/Muscle: 70
[1]; 48 Hours
  Average Percent of Injected Dose, Blood: .006% of Injected Dose
  Average Percent of Injected Dose, Kidneys: .286% of Injected Dose
  Average Percent of Injected Dose, Liver: .458% of Injected Dose
  Average Percent of Injected Dose, Skeleton: 60% of Injected Dose
  Average Percent of Injected Dose, Urine: 50% of Injected Dose
  Bone/Blood: 8200
  Bone/Muscle: 2800
[1]; 72 Hours
  Average Percent of Injected Dose, Blood: .006% of Injected Dose
  Average Percent of Injected Dose, Kidneys: .216% of Injected Dose
  Average Percent of Injected Dose, Liver: .492% of Injected Dose
  Average Percent of Injected Dose, Skeleton: 57% of Injected Dose
  Average Percent of Injected Dose, Urine: 53% of Injected Dose
  Bone/Blood: 7800
  Bone/Muscle: 3400
[1]; rats, up to 72 hours, words
  clearance of the radioactivity from the skeletal system: no significant clearance of the radioactivity from the skeletal system
[1]; rats, words
  blood clearance: rapid blood clearance
  uptake of the radioactivity in bone: rapid uptake of the radioactivity in bone
[2]; 0.5 mCi Sm-153/kg
  platelet and white blood cell levels: smaller decrease in the levels of platelets and white blood cells
[2]; 0.5 mCi Sm-153/kg, few animals that fell below normal
  time to return of white cells and platelets to normal levels: 4-5 weeks
[2]; 1.0 mCi Sm-153/kg
  time to return of white cells and platelets to normal levels: 4-5 weeks
  platelet and white blood cell levels: slight decrease in both platelets and white blood cells
[3]; post-injection vs preinjection
  blood profiles (white blood cell, red blood cell, platelet count) and serum chemistry profiles: No significant changes
[3]; several post injection times vs preinjection
  vital signs: not significantly different than preinjection values
